Where two headings read alike, the source gives them in different places.
Assays:
[1] = Tissue distribution after single oral PU-48 SNEDDS; type: in vivo; conditions: rat, oral PU-48 SNEDDS 12 mg/kg
Procedure: Internal standard (IS, 25 μL) was added to 50 μL plasma, urine, or bile sample in a clean tube, placed into a water bath at 37 °C, and dried under a gentle stream of nitrogen gas, followed by the addition of 0.5 mL of ethyl acetate for liquid-liquid extraction. The mixture was shaken by a vortex mixer for 3 min, and then centrifuged at 8000 rpm (4200× g) for 10 min at 4 °C. After centrifugation, the upper organic phase was transferred into a clean centrifuge tube and then dried it again. The combined upper organic phases were evaporated to dryness at 37 °C under a gentle stream of nitrogen gas. The residue was reconstituted with 50 μL acetonitrile and then centrifuged at 13,000 rpm (12,000× g) for 10 min at 4 °C, the upper liquid was transferred into sample vials. Finally, 5 μL aliquots were injected into the LC–MS/MS system to analyze. Each tissue samples were homogenized in normal saline (0.9% NaCl, 1:3, w/v), and then centrifuged at 10,000× g for 10 min to get the supernatant. Other steps were the same as plasma sample preparation.
Thirty rats were divided randomly into five groups and the rats were given single orally administration of PU-48 (12 mg/kg, 1.2 mg/mL in the SNEDDS formulation). […] After the final time point, the rats were sacrificed and thirteen tissues (liver, spleen, lung, kidney, heart, muscle, colon, intestine, stomach, bladder, testicle, adipose, brain) were collected. Tissues samples were rinsed with ice-cold 0.9% normal saline and blotted dry with filter paper. All the samples were weighted and stored at −20 °C until analysis.

plasma protein = experiment: Plasma protein binding by equilibrium dialysis, human plasma; type: in vitro ADME; conditions: for Concentration in Buffer (post-dialysis) / Concentration in Plasma (post-dialysis) / Protein-Binding Ratio: human plasma, n=5; for Concentration in Buffer (post-dialysis) / Concentration in Plasma (post-dialysis): 37 °C 24 h
Procedure: The concentration of PU-48 prototype in biological sample (feces and plasma protein binding analysis) was determined using a validated high-performance liquid chromatographic (HPLC) method our preliminary experiment (See Supplementary Materials HPLC Analysis and Method Validation). Briefly, the quantitative analysis of PU-48 was performed using a HPLC consistent of model 510 pump with a model 2487 ultraviolet detector, a model Rheodyne 7725 injector, and a column oven. The analytical conditions were as follows—The detection wavelength—293 nm; analytical column—a reversed-phase Acclaim C18 (4.6 mm × 250 mm, 5.0 µm, Dionex, Sunnyvale, CA, USA); column temperature—25 °C; mobile phase—acetonitrile—distilled water at a ratio of 60:40 (v/v); flow rate—1 mL/min. In this study, the methods for the feces samples were evaluated for specificity, linearity, precision, accuracy, and recovery (See Supplementary Materials Tables S4–S6).
The binding ratio of PU-48 to plasma protein was determined by equilibrium dialysis. A volume of 1 mL of plasma with PU-48 (0.25, 1 and 4 µg/mL) was added to a semi-permeable membrane bag (plasma chamber), the bag was place into the other clean tube with 9 mL PBS (buffer chamber). The equilibrium dialysis was performed at 37 °C for 24 h. At the end of dialysis, 500 μL each of post-dialysis samples from the plasma and the buffer chambers were collected and analyzed by HPLC method. The plasma protein binding of PU-48 was calculated from the concentration of PU-48 in PBS (free concentration) and in plasma (free + bound) according to equation: Bound (%) = (Concplasma chamber − Concbuffer chamber)/Concplasma chamber × 100%.

[2] = Urine and feces excretion after single oral PU-48 SNEDDS; type: in vivo; conditions: rat, oral PU-48 SNEDDS 12 mg/kg
[3] = parameters: method as in PMID 24055006, PMID 23728001, PMID 9124305, PMID 2671740; conditions: cited from earlier work
[4] = bladder, read-out: Concentration of PU-48 in bladder
[5] = brain, read-out: Concentration of PU-48 in brain
[6] = colon, read-out: Concentration of PU-48 in colon
[7] = fat, read-out: Concentration of PU-48 in fat
[8] = heart, read-out: Concentration of PU-48 in heart
[9] = intestine, read-out: Concentration of PU-48 in intestine
[10] = kidney, read-out: Concentration of PU-48 in kidney
[11] = liver, read-out: Concentration of PU-48 in liver
[12] = lung, read-out: Concentration of PU-48 in lung
[13] = male, testicle, read-out: Concentration of PU-48 in testicle
[14] = muscle, read-out: Concentration of PU-48 in muscle
[15] = plasma, read-out: Concentration of PU-48 in plasma
[16] = spleen, read-out: Concentration of PU-48 in spleen
[17] = stomach, read-out: Concentration of PU-48 in stomach

concentration at 0.5 h [1, 4]: 258 ± 94.2 ng/g | concentration at 1 h [1, 4]: 368 ± 124 ng/g | concentration at 6 h [1, 4]: 43.4 ± 10.7 ng/g | concentration at 12 h [1, 4]: 6.1 ± 3.2 ng/g | concentration at 24 h [1, 4]: 8.6 ± 6.5 ng/g | concentration at 0.5 h [1, 5]: 111 ± 23.3 ng/g | concentration at 1 h [1, 5]: 68.1 ± 52.7 ng/g | concentration at 6 h [1, 5]: 15.7 ± 19.3 ng/g | concentration at 12 h [1, 5]: 1.7 ± 1.5 ng/g | concentration at 0.5 h [1, 6]: 90.4 ± 30 ng/g | concentration at 1 h [1, 6]: 172 ± 89.5 ng/g | concentration at 6 h [1, 6]: 35.2 ± 14.7 ng/g | concentration at 12 h [1, 6]: 28.6 ± 21.7 ng/g | concentration at 24 h [1, 6]: 14.1 ± 5.6 ng/g | concentration at 0.5 h [1, 7]: 481 ± 398 ng/g | concentration at 1 h [1, 7]: 99.3 ± 26.9 ng/g | concentration at 6 h [1, 7]: 52.3 ± 43.2 ng/g | concentration at 12 h [1, 7]: 2.7 ± 1.9 ng/g | concentration at 24 h [1, 7]: 0.7 ± 0.6 ng/g | concentration at 0.5 h [1, 8]: 251 ± 78.4 ng/g | concentration at 1 h [1, 8]: 125 ± 31 ng/g | concentration at 6 h [1, 8]: 11.3 ± 11.2 ng/g | concentration at 24 h [1, 8]: 0.5 ng/g | concentration at 0.5 h [1, 9]: 655 ± 89.3 ng/g | concentration at 1 h [1, 9]: 777 ± 277 ng/g | concentration at 6 h [1, 9]: 209 ± 166 ng/g | concentration at 12 h [1, 9]: 45.4 ± 18.9 ng/g | concentration at 24 h [1, 9]: 9 ± 4.7 ng/g | concentration at 0.5 h [1, 10]: 416 ± 138 ng/g | concentration at 1 h [1, 10]: 297 ± 241 ng/g | concentration at 6 h [1, 10]: 44.5 ± 33.9 ng/g | concentration at 12 h [1, 10]: 4.7 ± 1.1 ng/g | concentration at 24 h [1, 10]: 5.3 ± 3.4 ng/g | concentration at 0.5 h [1, 11]: 622 ± 183 ng/g | concentration at 1 h [1, 11]: 534 ± 228 ng/g | concentration at 6 h [1, 11]: 42.7 ± 27.3 ng/g | concentration at 12 h [1, 11]: 13.4 ± 3.1 ng/g | concentration at 24 h [1, 11]: 20.4 ± 12.2 ng/g | concentration at 0.5 h [1, 12]: 231 ± 79.3 ng/g | concentration at 1 h [1, 12]: 174 ± 91.4 ng/g | concentration at 6 h [1, 12]: 7.2 ± 5.7 ng/g | concentration at 12 h [1, 12]: 0.9 ± 0.1 ng/g | concentration at 24 h [1, 12]: 1.3 ± 0.9 ng/g | concentration at 0.5 h [1, 13]: 34.2 ± 21.2 ng/g | concentration at 1 h [1, 13]: 51.7 ± 24.4 ng/g | concentration at 6 h [1, 13]: 9.5 ± 8.5 ng/g | concentration at 12 h [1, 13]: 1.5 ± 0.7 ng/g | concentration at 24 h [1, 13]: 1.4 ± 1.1 ng/g | concentration at 0.5 h [1, 14]: 39.8 ± 28.6 ng/g | concentration at 1 h [1, 14]: 52 ± 25.5 ng/g | concentration at 6 h [1, 14]: 4.5 ± 3.5 ng/g | concentration at 12 h [1, 14]: 2 ± 1.9 ng/g | concentration at 24 h [1, 14]: 1.4 ± 1.5 ng/g | concentration at 0.5 h [1, 15]: 277 ± 42.4 ng/mL | concentration at 1 h [1, 15]: 119 ± 63.5 ng/mL | concentration at 6 h [1, 15]: 16.8 ± 26.4 ng/mL | concentration at 12 h [1, 15]: 2.4 ± 1.7 ng/mL | concentration at 24 h [1, 15]: 0.3 ± 0.1 ng/mL | Peak concentration of PU-48 in brain [1]: 111.1 ± 23.3 ng/mL | Tmax ([1]; thirteen tissues, read-out: Peak time (Tmax) of PU-48 in analyzed tissues): 30 to 60 min | concentration at 0.5 h [1, 16]: 266 ± 120 ng/g | concentration at 1 h [1, 16]: 161 ± 64 ng/g | concentration at 6 h [1, 16]: 15.2 ± 12.9 ng/g | concentration at 12 h [1, 16]: 3.8 ± 5.7 ng/g | concentration at 24 h [1, 16]: 9.9 ± 12 ng/g | concentration at 0.5 h [1, 17]: 887 ± 235 ng/g | concentration at 1 h [1, 17]: 2020 ± 822 ng/g | concentration at 6 h [1, 17]: 509 ± 160 ng/g | concentration at 12 h [1, 17]: 104 ± 28.4 ng/g | concentration at 24 h [1, 17]: 7 ± 3.1 ng/g | concentration at 24 h ([1]; tissues except liver and colon, read-out: Concentrations of PU-48 in tissues except liver and colon): < 10 ng/g | Concentration in Buffer (post-dialysis) (plasma protein; added 0.25 µg/mL): 12 ± 3 ng/mL | Concentration in Plasma (post-dialysis) (plasma protein; added 0.25 µg/mL): 146 ± 8 ng/mL | Protein-Binding Ratio (plasma protein; added 0.25 µg/mL): 91.60 ± 1.57% | Concentration in Buffer (post-dialysis) (plasma protein; added 1 µg/mL): 52 ± 3 ng/mL | Concentration in Plasma (post-dialysis) (plasma protein; added 1 µg/mL): 611 ± 27 ng/mL | Protein-Binding Ratio (plasma protein; added 1 µg/mL): 91.48 ± 0.64% | Concentration in Buffer (post-dialysis) (plasma protein; added 4 µg/mL): 231 ± 29 ng/mL | Concentration in Plasma (post-dialysis) (plasma protein; added 4 µg/mL): 2290 ± 93 ng/mL | Protein-Binding Ratio (plasma protein; added 4 µg/mL): 89.90 ± 1.50% | fraction unbound at 24 h (plasma protein; plasma, human, overall statement): < 0.1 | Accumulative Excretion Amount, urine ([2]; 24–36 h): 1058.2 ± 684.1 ng | Accumulative Excretion Amount, urine ([2]; 36–48 h): 1216.6 ± 716.3 ng | Accumulative Excretion Percentage, urine ([2]; 36–48 h): 0.0436 ± 0.0261%
Structure (SMILES): COC(=O)c1sc2nc3ccc(OC)cc3cc2c1N [PU-48, Methyl 3-amino-6-methoxythieno [2,3-b] quinoline-2-carboxylate]
Blood brain barrier crossing ([1]; inferred from brain concentration): could cross the blood brain barrier (BBB) | Serum levels of sodium, chloride, or potassium [3]: did not change
